In ChEMBL document CHEMBL4725238, “Methylene blue-based 7-nitro-1,2,3-benzoxadiazole NIR fluorescent probe triggered by HS” (Bioorg Med Chem Lett, 2020):
Calls of active or inactive are those of the source. The calls are words filed in the database; no cut-off is given here.

What was measured:
[1] = Chloride reactivity in pH 7 C2H5OH/PBS assessed as change in fluorescence at 50 uM
[2] = Thiocyanate reactivity in pH 7 C2H5OH/PBS assessed as change in fluorescence at 50 uM
[3] = Zinc reactivity in pH 7 C2H5OH/PBS assessed as change in fluorescence at 50 uM
[4] = Phosphoric acid reactivity in pH 7 C2H5OH/PBS assessed as change in fluorescence at 50 uM
[5] = Sulfate reactivity in pH 7 C2H5OH/PBS assessed as change in fluorescence at 50 uM
[6] = Iodide reactivity in pH 7 C2H5OH/PBS assessed as change in fluorescence at 50 uM
[7] = Cytotoxicity against human HCT-116 cells assessed as cell viability at 10 uM incubated for 24 hrs by CCK8 assay relative to control; type: cell-based; conditions: read-out: Activity
[8] = Hydrogen sulphide reactivity in pH 7 C2H5OH/PBS assessed as change in fluorescence at 50 uM
[9] = Potassium reactivity in pH 7 C2H5OH/PBS assessed as change in fluorescence at 50 uM
[10] = Glutathione reactivity in pH 7 C2H5OH/PBS assessed as change in fluorescence at 50 uM
[11] = Nitrate reactivity in pH 7 C2H5OH/PBS assessed as change in fluorescence at 50 uM
[12] = Bromide reactivity in pH 7 C2H5OH/PBS assessed as change in fluorescence at 50 uM
[13] = Sodium reactivity in pH 7 C2H5OH/PBS assessed as change in fluorescence at 50 uM
[14] = […] reactivity in pH 7 C2H5OH/PBS assessed as change in fluorescence at 50 uM
[15] = Drug accumulation in human HCT116 cells up to 100 uM in presence of Na2S; type: ADME, cell-based; conditions: hct-116
[16] = Bicarbonate reactivity in pH 7 C2H5OH/PBS assessed as change in fluorescence at 50 uM
[17] = Acetate reactivity in pH 7 C2H5OH/PBS assessed as change in fluorescence at 50 uM
[18] = Cysteine reactivity in pH 7 C2H5OH/PBS assessed as change in fluorescence at 50 uM
[19] = Cytotoxicity against human HCT-116 cells assessed as cell viability up to 50 uM incubated for 24 hrs by CCK8 assay relative to control; type: cell-based; conditions: read-out: Activity

CN(C)c1ccc2c(c1)Sc1cc(N(C)C)ccc1N2c1ccc([N+](=O)[O-])c2nonc12
Activity [1]: inactive | Activity [2]: inactive | Activity [3]: inactive | Activity [4]: inactive | Activity [5]: inactive | Activity [6]: inactive | viability at 24 h, 10 µM [7]: > 85% | Activity [8]: Active | Activity [9]: inactive | Activity [10]: Active | Activity [11]: inactive | Activity [12]: inactive | Activity [13]: inactive | Activity [14]: inactive | Drug uptake [15]: Active | Activity [16]: inactive | Activity [17]: inactive | Activity [18]: Active | viability at 24 h [19]: 64%
